Test results taken from US8017786B2, “Substituted β-phenyl-α-hydroxy-propanoic acid, synthesis method and use thereof” (Northwest University, priority 2006, dated 2011).
Structures can show the parent of a compound that is named as a salt.

Legend:
Type in all cases: in vivo, rat
anesthetized rats = experiment: Blood pressure and left ventricular function of anesthetized rats; settings: for change-rate of left intraventricular pressure MAX / change-rate of left intraventricular pressure, -MAX / contractive pressure / diastolic pressure / heart rate / left intraventricular pressure / mean arterial pressure: 11.4 mg/kg duodenal
Experimental: All data were input into PowerLab/8Sp data acquisition and processing system via RM-6000 multi-channel polygraph, and recorded, analyzed and processed by PowerLab/8Sp.
The abdomen was opened 1.5 cm below xiphoid bone to isolate duodenum, a small incision was formed on the duodenum away from blood vessels by ophthalmic scissors, a catheter was inserted and the incision was fixed by suture for administration. After the end of operation and a further waiting period of 30 min, normal data were recorded once the indexes to be monitored were stable.
Test drugs were duodenally administered via the catheter, and the indexes were monitored 5, 15, 30, 60, 90 and 120 min after the administration. The change ratios of the indexes were calculated in accordance with the following formula, and were used for statistic analysis among groups.

[1] = tested on: rats with acute myocardial ischemia; experiment: Area of myocardial infarction in rats with acute myocardial ischemia (coronary artery ligation); settings: 10 mg/kg intragastric; 24 h after coronary artery ligation
Experimental: (§1) At 0.5 h after the rats of these groups were administered intragastrically, the standard II lead electrocardiogram (before modeling) was recorded, and the height of ST-T segment was measured. The rats of sham operation group were then subjected to coronary artery braid without ligation, and the rats of other groups were subjected to coronary artery ligation in accordance with the following method to establish cute myocardial ischemia models. The rats were subjected to etherization, fixed at supine position, and their normal electrocardiograms (before modeling) were recorded. The skin of left thorax was incised under aseptic conditions, the 4th intercostal muscles were isolated in blunt way, the heart was extruded by light pressure to the right thorax, the left anterior descending coronary artery was ligated at a position 2˜3 mm departing from the left coronary artery origin and between the pulmonary conus and the left auricle of heart, then the heart was sent back to thorax cavity immediately and sutured the incision. Penicillin was smeared topically for the prevention of infections. After operation, the electrocardiogram of postischemia was recorded immediately (at 0 min after modeling), and the height of ST-T segment was measured.

creatine kinase (CK) = experiment: Serum CK activity in rats with myocardial ischemia; settings: 10 mg/kg intragastric; serum, 24 h after ligation
Experimental: as §1

[2] = tested on: creatine kinase isoenzyme (CK-MB); experiment: Serum CK-MB activity in rats with myocardial ischemia; settings: 10 mg/kg intragastric; serum, 24 h after ligation
Experimental: as §1

[3] = tested on: lactate dehydrogenase (LDH); experiment: Serum LDH activity in rats with myocardial ischemia; settings: 10 mg/kg intragastric; serum, 24 h after ligation
Experimental: as §1

[4] = tested on: superoxide dismutase (SOD); experiment: Serum SOD activity in rats with myocardial ischemia; settings: 10 mg/kg intragastric; serum, 24 h after ligation
Experimental: as §1

malondialdehyde (MDA) = experiment: Serum MDA content in rats with myocardial ischemia; settings: 10 mg/kg intragastric; serum, 24 h after ligation
Experimental: as §1

[5] = tested on: rats with acute myocardial ischemia; experiment: ST-T segment of ECG in rats with myocardial ischemia; settings: 10 mg/kg intragastric
Experimental: as §1

COc1ccc(CCN(C)CCCC(C#N)(c2ccc(OC)c(OC)c2)C(C)C)cc1OC (stereo not drawn) [Verapamil, verapamil hydrochloride, reference compound]
change-rate of left intraventricular pressure MAX (anesthetized rats; 5 min after administration): 4857.7 ± 1002.4 mmHg/s | change-rate of left intraventricular pressure, -MAX (anesthetized rats; 5 min after administration): −3812.9 ± 779.3 mm/Hg/s | contractive pressure (anesthetized rats; 5 min after administration): 115.30 ± 19.35 mmHg | diastolic pressure (anesthetized rats; 5 min after administration): 59.69 ± 12.55 mmHg | heart rate (anesthetized rats; 5 min after administration): 345.03 ± 33.81 beat/min | left intraventricular pressure (anesthetized rats; 5 min after administration): 128.71 ± 14.20 mmHg | mean arterial pressure (anesthetized rats; 5 min after administration): 78.22 ± 14.31 mmHg | change-rate of left intraventricular pressure MAX (anesthetized rats; 15 min after administration): 4284.9 ± 793.2 mmHg/s | change-rate of left intraventricular pressure, -MAX (anesthetized rats; 15 min after administration): −3548.9 ± 707.7 mm/Hg/s | contractive pressure (anesthetized rats; 15 min after administration): 98.48 ± 16.13 mmHg | diastolic pressure (anesthetized rats; 15 min after administration): 50.08 ± 9.88 mmHg | heart rate (anesthetized rats; 15 min after administration): 324.96 ± 36.20 beat/min | left intraventricular pressure (anesthetized rats; 15 min after administration): 120.22 ± 12.98 mmHg | mean arterial pressure (anesthetized rats; 15 min after administration): 66.21 ± 11.57 mmHg | change-rate of left intraventricular pressure MAX (anesthetized rats; 30 min after administration): 4152.8 ± 901.5 mmHg/s | change-rate of left intraventricular pressure, -MAX (anesthetized rats; 30 min after administration): −3416.6 ± 767.5 mm/Hg/s | contractive pressure (anesthetized rats; 30 min after administration): 94.47 ± 17.17 mmHg | diastolic pressure (anesthetized rats; 30 min after administration): 48.00 ± 9.98 mmHg | heart rate (anesthetized rats; 30 min after administration): 322.02 ± 51.09 beat/min | left intraventricular pressure (anesthetized rats; 30 min after administration): 116.59 ± 13.59 mmHg | mean arterial pressure (anesthetized rats; 30 min after administration): 63.49 ± 11.93 mmHg | change-rate of left intraventricular pressure MAX (anesthetized rats; 60 min after administration): 3919.4 ± 784.0 mmHg/s | contractive pressure (anesthetized rats; 60 min after administration): 98.49 ± 22.31 mmHg | diastolic pressure (anesthetized rats; 60 min after administration): 48.81 ± 11.47 mmHg | heart rate (anesthetized rats; 60 min after administration): 317.91 ± 58.04 beat/min | left intraventricular pressure (anesthetized rats; 60 min after administration): 115.68 ± 15.37 mmHg | mean arterial pressure (anesthetized rats; 60 min after administration): 65.37 ± 14.57 mmHg | change-rate of left intraventricular pressure MAX (anesthetized rats; 90 min after administration): 3759.0 ± 814.5 mmHg/s | change-rate of left intraventricular pressure, -MAX (anesthetized rats; 90 min after administration): −3247.4 ± 773.2 mm/Hg/s | contractive pressure (anesthetized rats; 90 min after administration): 99.15 ± 23.91 mmHg | diastolic pressure (anesthetized rats; 90 min after administration): 49.38 ± 13.27 mmHg | heart rate (anesthetized rats; 90 min after administration): 329.61 ± 55.70 beat/min | left intraventricular pressure (anesthetized rats; 90 min after administration): 115.10 ± 16.60 mmHg | mean arterial pressure (anesthetized rats; 90 min after administration): 65.97 ± 16.34 mmHg | change-rate of left intraventricular pressure MAX (anesthetized rats; 120 min after administration): 4044.6 ± 844.9 mmHg/s | change-rate of left intraventricular pressure, -MAX (anesthetized rats; 120 min after administration): −3452.2 ± 630.9 mm/Hg/s | contractive pressure (anesthetized rats; 120 min after administration): 102.58 ± 27.01 mmHg | diastolic pressure (anesthetized rats; 120 min after administration): 51.84 ± 13.93 mmHg | heart rate (anesthetized rats; 120 min after administration): 328.05 ± 58.98 beat/min | left intraventricular pressure (anesthetized rats; 120 min after administration): 118.39 ± 16.55 mmHg | mean arterial pressure (anesthetized rats; 120 min after administration): 68.75 ± 17.93 mmHg | change-rate of left intraventricular pressure MAX (anesthetized rats; before administration): 5455.9 ± 1418.1 mmHg/s | change-rate of left intraventricular pressure, -MAX (anesthetized rats; before administration): −4215.6 ± 1058.0 mm/Hg/s | contractive pressure (anesthetized rats; before administration): 137.10 ± 28.79 mmHg | diastolic pressure (anesthetized rats; before administration): 75.39 ± 19.27 mmHg | heart rate (anesthetized rats; before administration): 363.19 ± 46.67 beat/min | left intraventricular pressure (anesthetized rats; before administration): 137.79 ± 18.96 mmHg | mean arterial pressure (anesthetized rats; before administration): 95.96 ± 22.22 mmHg | dp/dt (in words) (anesthetized rats; verapamil group (11.4 mg/kg)): significantly reduced | effect on the heart rate (in words) (anesthetized rats; verapamil group (11.4 mg/kg)): significantly reduced | left intraventricular pressure (in words) (anesthetized rats; verapamil group (11.4 mg/kg)): significantly reduced | −dp/dt (in words) (anesthetized rats; verapamil group (11.4 mg/kg)): significantly reduced | mean arterial pressure, systolic pressure and diastolic pressure (in words) (anesthetized rats; verapamil group (11.4 mg/kg), 5-120 min): significantly reduce | Infarct region weight [1]: 0.18 ± 0.04 g | Non-infarct region weight [1]: 0.46 ± 0.08 g | Percentage (infarct cardiac muscles of whole ventricle, by weight) [1]: 27.60 ± 5.03 % | Ventricle weight [1]: 0.65 ± 0.09 g | CK (creatine kinase (CK)): 752.2 ± 102.8 U/L | CK-MB [2]: 776.6 ± 127.6 U/L | LDH [3]: 1160.8 ± 145.0 U/L | SOD [4]: 126.16 ± 28.10 U/mL | MDA (malondialdehyde (MDA)): 11.86 ± 5.93 nmol/mL | Elevation of ST-T segment ([5]; 0 min after modeling): 0.23 ± 0.12 mV | Elevation of ST-T segment ([5]; 24 h after modeling): 0.18 ± 0.04 mV | Elevation of ST-T segment, Change rate ([5]; 24 h after modeling): 19.17 ± 20.94 % | Elevation of ST-T segment ([5]; before modeling): 0.23 ± 0.04 mV
